# Assay results taken from patent US10961231B2, “NTCP inhibitors” (National Institute of Biological Sciences, Beijing, priority 2018, dated 2021).
# Read-outs that look alike come from different tables or passages of the source.
# Molecular target: T1, NTCP (Homo sapiens, UniProt Q14973)
# T1 sequence (Q14973 1-349): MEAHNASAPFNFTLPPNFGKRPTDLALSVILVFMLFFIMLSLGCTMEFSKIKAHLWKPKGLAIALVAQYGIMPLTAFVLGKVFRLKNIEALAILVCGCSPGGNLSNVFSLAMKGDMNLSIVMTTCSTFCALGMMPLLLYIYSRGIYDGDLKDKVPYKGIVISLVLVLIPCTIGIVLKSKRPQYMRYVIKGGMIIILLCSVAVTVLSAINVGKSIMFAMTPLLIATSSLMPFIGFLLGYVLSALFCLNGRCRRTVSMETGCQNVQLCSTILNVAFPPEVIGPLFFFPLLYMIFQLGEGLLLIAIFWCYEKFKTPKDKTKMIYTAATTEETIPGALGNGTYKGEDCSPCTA
# Experiment: [3H]-TCA uptake assay (NTCP inhibition)
# Type: cell-based
# Procedure: [^3H]-TCA uptake assay. PTH and HepG2-NTCP cells were cultured in PMM for 24 hours to induce NTCP expression. After treated by DMSO or test compounds for 2 hours, the cells were then incubated with 1 μM [^3H]-taurocholate acid dissolved in Na^+ Ringer's buffer (the concentration of Na was 145 mM) for 15 minutes at 37° C. Subsequently, the cells were washed once in phosphate-buffered saline (PBS) and lysed in 50 μL 1% TritonX-100 in H2O for 5 minutes at room temperature. The lysate were totally transferred into a liquid scintillation 96 well plate and mixed with 200 μL liquid scintillation cocktail (Ultima Gold XR, PerkinElmer). Liquid scintillation counting was performed on a PerkinElmer 1450 LSC liquid scintillation counter.
# [1] = given as a range, assay not given
# [2] = IC50, given as a range, marked * (asterisk not explained)
# [3] = given as a range, marked * (asterisk not explained)
# [4] = IC50, given as a range, assay not given
# [5] = given as a range, assay not given, read-out: IC50
Compound,IC50 [1] [nM],IC50 [2] [nM],also measured
"CCC1NC(=O)C(C2OC(Sc3cccc(OCC4CC4)c3)CC2C)N(C)C(=O)C(C(C)C)N(C)C(=O)C(CC(C)C)N(C)C(=O)C(CC(C)C)N(C)C(=O)C(C)NC(=O)C(C)NC(=O)C(CC(C)C)N(C)C(=O)C(C(C)C)NC(=O)C(CC(C)C)N(C)C(=O)CN(C)C1=O [Compound 32A, [2-((2R,3R)-5-(3-(cyclopropylmethoxy)phenylthio)-3-methyltetrahydrofuran-2-yl)-2-(methylamino)acetic acid]^1-cyclosporin A]",1 to 1000,,
CCC1NC(=O)C(C2OC(Oc3ccc4ccccc4c3)CC2C)N(C)C(=O)C(C(C)C)N(C)C(=O)C(CC(C)C)N(C)C(=O)C(CC(C)C)N(C)C(=O)C(C)NC(=O)C(C)NC(=O)C(CC(C)C)N(C)C(=O)C(C(C)C)NC(=O)C(CC(C)C)N(C)C(=O)CN(C)C1=O (stereo not shown) [Compound 62-o],,1000 to 100000,
CCC1NC(=O)C(C2OC(Oc3cc(Cl)cc(OCc4ccccc4)c3)CC2C)N(C)C(=O)C(C(C)C)N(C)C(=O)C(CC(C)C)N(C)C(=O)C(CC(C)C)N(C)C(=O)C(C)NC(=O)C(C)NC(=O)C(CC(C)C)N(C)C(=O)C(C(C)C)NC(=O)C(CC(C)C)N(C)C(=O)CN(C)C1=O (stereo not shown) [Compound 63-o],,1000 to 100000,
CCC1NC(=O)C(C2OC(Oc3cccc(OCc4ccn(C)c(=O)c4)c3)CC2C)N(C)C(=O)C(C(C)C)N(C)C(=O)C(CC(C)C)N(C)C(=O)C(CC(C)C)N(C)C(=O)C(C)NC(=O)C(C)NC(=O)C(CC(C)C)N(C)C(=O)C(C(C)C)NC(=O)C(CC(C)C)N(C)C(=O)CN(C)C1=O (stereo not shown) [Compound 16A-o],,,IC50 [3]: 1000 to 100000 nM
"CCC1NC(=O)C(C2OC(OCc3ccccc3OC)CC2C)N(C)C(=O)C(C(C)C)N(C)C(=O)C(CC(C)C)N(C)C(=O)C(CC(C)C)N(C)C(=O)C(C)NC(=O)C(C)NC(=O)C(CC(C)C)N(C)C(=O)C(C(C)C)NC(=O)C(CC(C)C)N(C)C(=O)CN(C)C1=O (single isomer, unassigned) [Compound 82B]",1 to 1000,,
"CCC1NC(=O)C(C2OC(Sc3cccc(OCc4cccc(F)c4)c3)CC2C)N(C)C(=O)C(C(C)C)N(C)C(=O)C(CC(C)C)N(C)C(=O)C(CC(C)C)N(C)C(=O)C(C)NC(=O)C(C)NC(=O)C(CC(C)C)N(C)C(=O)C(C(C)C)NC(=O)C(CC(C)C)N(C)C(=O)CN(C)C1=O [Compound 20A, [2-((2R,3R)-5-(3-(3-fluorobenzyloxy)phenylthio)-3-methyltetrahydrofuran-2-yl)-2-(methylamino)acetic acid]^1-cyclosporin A]",1 to 1000,,
"CCC1NC(=O)C(C2OC(Sc3ccc(OC)cc3)CC2C)N(C)C(=O)C(C(C)C)N(C)C(=O)C(CC(C)C)N(C)C(=O)C(CC(C)C)N(C)C(=O)C(C)NC(=O)C(C)NC(=O)C(CC(C)C)N(C)C(=O)C(C(C)C)NC(=O)C(CC(C)C)N(C)C(=O)CN(C)C1=O [Compound 26A, [2-((2R,3R)-5-(4-methoxyphenylthio)-3-methyltetrahydrofuran-2-yl)-2-(methylamino)acetic acid]^1-cyclosporin A]",1 to 1000,,
CCC1NC(=O)C(C2OC(SCc3ccc(OCCN(C)C)cc3)CC2C)N(C)C(=O)C(C(C)C)N(C)C(=O)C(CC(C)C)N(C)C(=O)C(CC(C)C)N(C)C(=O)C(C)NC(=O)C(C)NC(=O)C(CC(C)C)N(C)C(=O)C(C(C)C)NC(=O)C(CC(C)C)N(C)C(=O)CN(C)C1=O (stereo not shown) [Compound 87A-s],,1000 to 100000,
"CCC1NC(=O)C(C2OC(OCc3cccc(Cl)c3OC)CC2C)N(C)C(=O)C(C(C)C)N(C)C(=O)C(CC(C)C)N(C)C(=O)C(CC(C)C)N(C)C(=O)C(C)NC(=O)C(C)NC(=O)C(CC(C)C)N(C)C(=O)C(C(C)C)NC(=O)C(CC(C)C)N(C)C(=O)CN(C)C1=O (single isomer, unassigned) [Compound 88A]",1 to 1000,,
"CCC1NC(=O)C(C2OC(OCc3ccc(OCCN(C)C)cc3)CC2C)N(C)C(=O)C(C(C)C)N(C)C(=O)C(CC(C)C)N(C)C(=O)C(CC(C)C)N(C)C(=O)C(C)NC(=O)C(C)NC(=O)C(CC(C)C)N(C)C(=O)C(C(C)C)NC(=O)C(CC(C)C)N(C)C(=O)CN(C)C1=O [Compound 87A, [2-((2R,3R)-5-(4-(2-(dimethylamino)ethoxy)benzyloxy)-3-methyltetrahydrofuran-2-yl)-2-(methylamino)acetic acid]^1-cyclosporin A]",,,IC50 [4]: 1000 to 10000 nM
"CCC1NC(=O)C(C2OC(Sc3ccc(Cl)c(OCCOC)c3)CC2C)N(C)C(=O)C(C(C)C)N(C)C(=O)C(CC(C)C)N(C)C(=O)C(CC(C)C)N(C)C(=O)C(C)NC(=O)C(C)NC(=O)C(CC(C)C)N(C)C(=O)C(C(C)C)NC(=O)C(CC(C)C)N(C)C(=O)CN(C)C1=O [Compound 45A, [2-((2R,3R)-5-(4-chloro-3-(2-methoxyethoxy)phenylthio)-3-methyltetrahydrofuran-2-yl)-2-(methylamino)acetic acid]^1-cyclosporin A]",1 to 1000,,
CCC1NC(=O)C(C2OC(Oc3cccc(OCCN(C)C)c3)CC2C)N(C)C(=O)C(C(C)C)N(C)C(=O)C(CC(C)C)N(C)C(=O)C(CC(C)C)N(C)C(=O)C(C)NC(=O)C(C)NC(=O)C(CC(C)C)N(C)C(=O)C(C(C)C)NC(=O)C(CC(C)C)N(C)C(=O)CN(C)C1=O (stereo not shown) [Compound 14A-o],,1000 to 100000,
CCC1NC(=O)C(C2OC(Oc3ccc(OC)c(OC)c3)CC2C)N(C)C(=O)C(C(C)C)N(C)C(=O)C(CC(C)C)N(C)C(=O)C(CC(C)C)N(C)C(=O)C(C)NC(=O)C(C)NC(=O)C(CC(C)C)N(C)C(=O)C(C(C)C)NC(=O)C(CC(C)C)N(C)C(=O)CN(C)C1=O (stereo not shown) [Compound 37A-o],,1000 to 100000,
CCC1NC(=O)C(C2OC(Oc3cccc(OC(C)c4ccccc4)c3)CC2C)N(C)C(=O)C(C(C)C)N(C)C(=O)C(CC(C)C)N(C)C(=O)C(CC(C)C)N(C)C(=O)C(C)NC(=O)C(C)NC(=O)C(CC(C)C)N(C)C(=O)C(C(C)C)NC(=O)C(CC(C)C)N(C)C(=O)CN(C)C1=O (stereo not shown) [Compound 34A-o],,1000 to 100000,
CCCN(C)c1cccc(OC2CC(C)C(C3C(=O)NC(CC)C(=O)N(C)CC(=O)N(C)C(CC(C)C)C(=O)NC(C(C)C)C(=O)N(C)C(CC(C)C)C(=O)NC(C)C(=O)NC(C)C(=O)N(C)C(CC(C)C)C(=O)N(C)C(CC(C)C)C(=O)N(C)C(C(C)C)C(=O)N3C)O2)c1 (stereo not shown) [Compound 50A-o],,1000 to 100000,
"CCC1NC(=O)C(C2OC(Sc3ccc(Cl)c(OCCO)c3)CC2C)N(C)C(=O)C(C(C)C)N(C)C(=O)C(CC(C)C)N(C)C(=O)C(CC(C)C)N(C)C(=O)C(C)NC(=O)C(C)NC(=O)C(CC(C)C)N(C)C(=O)C(C(C)C)NC(=O)C(CC(C)C)N(C)C(=O)CN(C)C1=O [Compound 46A, [2-((2R,3R)-5-(4-chloro-3-(2-hydroxyethoxy)phenylthio)-3-methyltetrahydrofuran-2-yl)-2-(methylamino)acetic acid]^1-cyclosporin A]",1 to 1000,,
"CC[C@@H]1NC(=O)[C@H]([C@@H]2OC(OCc3cccc(Cl)c3)C[C@H]2C)N(C)C(=O)[C@H](C(C)C)N(C)C(=O)[C@H](CC(C)C)N(C)C(=O)[C@H](CC(C)C)N(C)C(=O)[C@@H](C)NC(=O)[C@H](C)NC(=O)[C@H](CC(C)C)N(C)C(=O)[C@H](C(C)C)NC(=O)[C@H](CC(C)C)N(C)C(=O)CN(C)C1=O (stereo partly drawn) [Compound 85A, [2-((2R,3R)-5-(3-chlorobenzyloxy)-3-methyltetrahydrofuran-2-yl)-2-(methylamino)acetic acid]^1-cyclosporin A]",,,IC50 [5]: 1 to 1000 nM
"CC[C@@H]1NC(=O)[C@H]([C@@H]2OC(Sc3cccc(OCc4ccc(F)cc4Cl)c3)C[C@H]2C)N(C)C(=O)[C@H](C(C)C)N(C)C(=O)[C@H](CC(C)C)N(C)C(=O)[C@H](CC(C)C)N(C)C(=O)[C@@H](C)NC(=O)[C@H](C)NC(=O)[C@H](CC(C)C)N(C)C(=O)[C@H](C(C)C)NC(=O)[C@H](CC(C)C)N(C)C(=O)CN(C)C1=O (stereo partly drawn) [Compound 23A, [2-((2R,3R)-5-(3-(2-chloro-4-fluorobenzyloxy)phenylthio)-3-methyltetrahydrofuran-2-yl)-2-(methylamino)acetic acid]^1-cyclosporin A]",,,IC50 [5]: 1 to 1000 nM
CCC1NC(=O)C(C2OC(SCc3ccc4c(c3)OCO4)CC2C)N(C)C(=O)C(C(C)C)N(C)C(=O)C(CC(C)C)N(C)C(=O)C(CC(C)C)N(C)C(=O)C(C)NC(=O)C(C)NC(=O)C(CC(C)C)N(C)C(=O)C(C(C)C)NC(=O)C(CC(C)C)N(C)C(=O)CN(C)C1=O (stereo not shown) [Compound 100A-s],,1000 to 100000,
CCC1NC(=O)C(C2OC(Oc3cc(OCCOC)cc(OCc4cccs4)c3)CC2C)N(C)C(=O)C(C(C)C)N(C)C(=O)C(CC(C)C)N(C)C(=O)C(CC(C)C)N(C)C(=O)C(C)NC(=O)C(C)NC(=O)C(CC(C)C)N(C)C(=O)C(C(C)C)NC(=O)C(CC(C)C)N(C)C(=O)CN(C)C1=O (stereo not shown) [Compound 56-o],,,IC50 [3]: 1000 to 100000 nM
CCC1NC(=O)C(C2OC(SCc3cccc(Cl)c3)CC2C)N(C)C(=O)C(C(C)C)N(C)C(=O)C(CC(C)C)N(C)C(=O)C(CC(C)C)N(C)C(=O)C(C)NC(=O)C(C)NC(=O)C(CC(C)C)N(C)C(=O)C(C(C)C)NC(=O)C(CC(C)C)N(C)C(=O)CN(C)C1=O (stereo not shown) [Compound 85A-s],,,IC50 [4]: 1000 to 100000 nM
"CCOc1cc(OCC)cc(SC2CC(C)C(C3C(=O)NC(CC)C(=O)N(C)CC(=O)N(C)C(CC(C)C)C(=O)NC(C(C)C)C(=O)N(C)C(CC(C)C)C(=O)NC(C)C(=O)NC(C)C(=O)N(C)C(CC(C)C)C(=O)N(C)C(CC(C)C)C(=O)N(C)C(C(C)C)C(=O)N3C)O2)c1 [Compound 39A, [2-((2R,3R)-5-(3,5-diethoxyphenylthio)-3-methyltetrahydrofuran-2-yl)-2-(methylamino)acetic acid]^1-cyclosporin A]",1 to 1000,,
